These results are taken from patent publication US5587402A, “Regression of mammalian leukemia cell tumors” (priority 1995, dated 1996).

Some results are limits rather than exact numbers.

In data set [1] the test system is isoprenylation of 21-26 kDa proteins in NIH3T3 (mouse embryo) cells. Kind of data set: Protein isoprenylation in NIH3T3 cells (21-26 kDa bands, SDS-PAGE fluorography). The format is cell-based. As to the method:
NIH3T3 (mouse embryo) cells were obtained from the American Type Culture Collection and were grown in Dulbecco's modified Eagle's medium supplemented with 10% calf serum. […] Because they carried a radioactive label, isoprenylated proteins were visualized by fluorography. As a control, cells were incubated without the monoterpene. […] Whole cell extracts were analyzed by SDS-PAGE on 16-cm×18-cm×0.75-mm gels by the method of Laemmli (supra). […] Gels were stained with Coomassie Brilliant Blue, equilibrated for 20 minutes in Amplify (Amersham Corp.) fluorographic reagent, dried under vacuum at 65° C., and exposed to […] Some fluorograms were analyzed further by densitometry. […] Protein content was measured by the method of Lowry, et al. […] FIG. 1 depicts the structures of these monoterpenes.

Data set [2] deals with isoprenylation of 21-26 kDa proteins in M600B cells. Kind of data set: Protein isoprenylation in M600B human mammary epithelial cells. The format is cell-based.
For data set [3], the system named is DMBA-induced rat mammary carcinomas. As to the kind of experiment: Pair-feeding study: regression and inhibition of DMBA-induced mammary carcinomas in rats. It is filed as in vivo, Wistar-Furth female rats. As to the method: We used Wistar-Furth female rats for in vivo studies. Wistar-Furth female rats were obtained from Harlan Sprague-Dawley, Inc., (Madison, Wis.). […] Rates were provided Teklad Lab blox chow and acidified water ad libitum.
The DMBA was dissolved in a stock solution of 20 mg DMBA/ml sesame oil, heated and allowed to cool to room temperature before administration. DMBA (Eastman Kodak, Rochester, N.Y.) was given as a single gastric intubation of 50 mg DMBA/kg rat body weight.
In the pair-feeding study, a group of 70 mammals was treated with DMBA. Beginning four weeks post-carcinogen administration, mammals were weighed and palpated weekly.
Fresh diets were make every 7-10 days. All mammals were provided fresh diet daily to minimize evaporation of the monoterpenes.
In a pair-feeding study, all palpable mammary tumors were classified as either "primary" tumors (i.e., the first tumor(s) palpated with a minimum diameter of 3 mm) or "secondary" tumors (i.e. a palpable tumor arising after initial diet assignment). […] All carcinogen-exposed mammals not bearing a first palpable tumor by week 15 post-carcinogen were removed from the experiment. Complete regression of a tumor was defined as non-palpability for a minimum of three consecutive weeks. All mammals in the pair-feeding study were followed for a minimum of 10 weeks post-diet assignment for tumor growth or regression at primary tumor sites and all other mammary glands. The rats were necropsied if moribund. Complete necropsies were performed on all rats at the termination of the study.

Data set [4] has as its system p210-transformed FDC-P1 cells. Kind of data set: Proliferation of p210 bcr/abl-transformed FDC-P1 myeloid cells. The format is cell-based, murine. The conditions noted are these: up to 800 μM; FIG. 9A. As to the method: (§1) (The p210 bcr/abl oncogene is carried on a helper-free retrovirus referred to as "p210.") FDC-P1 myeloid cells are an immature cell line from myeloid lineage derived from mouse bone marrow (Dexter, TM, J. Exp. Med. 152: 1036-1047, 1980).

Data set [5] relates to nontransformed FDC-P1 cells. As to the kind of experiment: Proliferation of nontransformed FDC-P1 myeloid cells. The format is cell-based, murine. To be noted: up to 800 μM; FIG. 9A. As to the method: as §1
Data set [6] concerns mammary, lung, and stomach cancers. The conditions noted are these: literature; cited from earlier work.
For data set [7] the following is noted: cited from earlier work.
Data set [8] deals with NIH3T3 cells. Kind of data set: Inhibition of NIH3T3 cell growth. It is filed as cell-based, mouse. The conditions noted are these: FIG. 3. As to the method: (§2) NIH3T3 (mouse embryo) cells were obtained from the American Type Culture Collection and were grown in Dulbecco's modified Eagle's medium supplemented with 10% calf serum. M600B immortalized human mammary epithelial cells (Stampfer, M. R., 1985, J. Tissue Culture Methods 9: 107-115) were obtained from Dr. Martha Stampfer and were grown in supplemented HCDB 170 medium (Hammond, et al. (1984) Proc. Natl. Acad. Sci U.S.A. 81: 5435-5439), as described previously (Stampfer, et al. (1985) Proc. Natl. Acad. Sci U.S.A. 82: 2394-2398; Eldridge, et al. (1989) Cancer Res. 49: 4326-4331).
(§3) All cells were maintained in 100-mm dishes at 37° C. in a humidified 5% CO2 atmosphere. Viable cells were distinguished from nonviable cells by counting azure II/methylene blue-stained colonies 10 days after the cells were plated at a density of 100 cells per dish. Trypan blue exclusion was measured by incubating cells for 1 minute with one drop of trypan blue per 10 ml of cells. Viable (colorless) and nonviable (blue) cells were then counted on a hemocytometer.
(§4) Additionally, growth of HT29 (human colon adenocarcinoma) cells was inhibited by 80% by 1 mM perillyl alcohol.

Data set [9] concerns M600B cells. Kind of data set: Inhibition of M600B cell growth. It is filed as cell-based, human. The conditions noted are these: FIG. 4. As to the method: as §2, §3, §4

On to `C=C(C)[C@H]1CC=C(C)CC1` [limonene, d-Limonene], for which, in data set [1] (0.5 mM or 5 mM, fluorography), the “intensity of the 21-26-kDa bands” value is recorded as “dose-responsive decrease in intensity”; the “intensity of the 66-, 46-, and 17-kDa bands” value was “not different from that of the control”. For the same compound, the activity at 500 µM in [1] (Mus musculus, NIH3T3, 0.5 mM, slicing and scintillation counting, as reported in Crowell et al. (own work), read-out: isoprenylation of the 21-26-kDa bands remaining, of the control) is around 50%. Also, the activity at 5000 µM in data set [1] (Mus musculus, NIH3T3, 5 mM, slicing and scintillation counting, as reported in Crowell et al. (own work), read-out: isoprenylation of the 21-26-kDa bands remaining, of the control) is around 25%. Moreover, the “spot at the dye front” value in data set [1] (fluorography) is reported as “reduced with maximal inhibition at 5 mM”. Besides, the “intensity of the 21-26 kDa bands” value in data set [2] (5 mM limonene) is on record as “marked decrease in the intensity of the 21-26 kDa bands”. Further, the minimal effective concentration in data set [2] (Homo sapiens, Epithelial cell, dose responsive, read-out: concentration required for significant inhibition of protein isoprenylation) is at least 1000 µM. For the same compound, in data set [3] (10% limonene diet versus 2.5% perillyl alcohol diet), the “number of secondary tumors compared with perillyl alcohol-fed mammals” value is recorded as “higher”. For the same compound, the “Time to Regress” value in [3] (10% limonene diet, Kaplan-Meier estimate of time when 25% of tumors will have regressed, p < 0.01, pair-fed control 14.5) is given as 3.25 wks. Also, the “Primary Tumor Regression (tumors regressed / tumors)” value in data set [3] (10% limonene diet, complete regression, p < 0.01 vs controls) is reported as 19/28. Moreover, the “Primary Tumor Regression (%)” value in [3] (10% limonene diet, complete regression, pair-fed control 23%) came to 68%. Also, in data set [3] (10% limonene diet, p < 0.01, pair-fed control 1.92), the “Number of Secondary Tumors/Rat” value amounted to 1.08. Besides, the “Secondary Tumor Regression (tumors regressed / tumors)” value in [3] (10% limonene diet, p < 0.01, pair-fed control 9/48) is 17/27. Also, in data set [3] (10% limonene diet, pair-fed control 19%), the “Secondary Tumor Regression (%)” value is given as 63%. The effect on proliferation entry in data set [4] was “no effect”. In data set [5], the effect on proliferation entry is recorded as “no effect”. In data set [6], the “activity against mammary, lung, and stomach cancers” value is “reported to have activity against mammary”. Moreover, in data set [7] (at the required usage levels), the toxicity to humans entry was “not toxic to humans”. Further, the side-effects result in data set [7] (particularly when a large dose is required in a short period) is recorded as “not without some side-effects”.

In the case of `C=C(C)[C@@H]1CC=C(C(=O)O)CC1` [Perillic acid, reference compound], in data set [2] (5 mM, FIG. 2), the “isoprenylation of 21-26 kDa proteins” value is “inhibited significantly”. Besides, in [2] (all cell types examined), the inhibition of isoprenylation entry is “inhibition of isoprenylation”. Further, the “inhibition of cell growth” value in data set [8] and in data set [9] was “significantly inhibited cell growth in a dose-dependent manner” each time.
